Measurements reported in patent US20090274714A1, “TUMOUR-ASSOCIATED PEPTIDES BINDING TO HUMAN LEUKOCYTE ANTIGEN (HLA) CLASS I OR II MOLECULES AND RELATED ANTI-CANCER VACCINE” (Immatics Boitechnologies GmhH, priority 2005, published 2009).
Where two headings read alike, the source gives them in different places. Each block holds one molecule with its values, some of them ahead of it. Ends that are not written are not given here.

Tests used:
[1] = Physico-chemical characteristics: solubility; details: solvent giving clear and colourless solution at 1 mg/ml
[2] = system: T-cells; assay: Summary of in vitro immunogenicity (killer assay, cytokine release/staining, tetramer detection); format: cell-based, human; details: reference: unpublished
Method: As in the latter case, several tumour cell lines endogenously expressing the antigen are also recognized.
IMA contains 10 HLA class I-binding peptides. To test the peptides regarding their in vitro immunogenicity, CD8-positive cytotoxic T-cells were generated from autologous peripheral blood mononuclear cells (PBMC) from healthy donors using single peptides contained in IMA and the activity of these cytotoxic T-cells was tested with chromium release assays and detection of T-cells with HLA tetramers in flow cytometry. Detailed data is shown for one exemplary peptide (IMA-MET-001) for both methods, the data for the other peptides is summarized in Table 8 above.
In the first step, cytotoxic T-cells are generated (primed) in vitro by repeated stimulation of peripheral blood mononuclear cells (PBMC) from healthy HLA-A*02 positive donors with the specific peptide to be tested. The priming can be done either using autologous dendritic cells generated from blood monocytes of the donor or using HLA tetramer-loaded beads.
A. Cytotoxic killing of target: In the second step, cytoxicity of such primed cytotoxic T-cells (CTLs) are tested by labelling target cells with radioactive chromium and incubating target cells with generated CTLs. The amount of radioactive chromium released into the supernatant can be correlated directly to proportion of killed target cells.
B. Detection of T-cells with HLA tetramers: Alternatively, in the second step primed CTLs with specificity for a given peptide are detected using HLA tetramers. Tetramers consist of four peptide-loaded HLA-A*02 molecules coupled to each other. These constructs allow specific labelling of the cognate T-cell receptor that recognizes the HLA-peptide-complex in the tetramer and by labelling of the tetramer with a fluorochrome followed by analysis in flow cytometry (FACS).

[3] = system: renal cell carcinoma; details: monotherapy, advanced RCC; cited from earlier work
[4] = system: T-cells; details: reference: published literature; cited from earlier work
[5] = system: CD4-positive T-cells; assay: Intracellular IFNγ staining of in vitro primed CD4-positive T-cells; format: cell-based, human
Method: First, CD4-positive T-cells were generated (primed) in vitro by repeated stimulation of peripheral blood mononuclear cells (PBMC) from healthy donors with the specific peptide to be tested in the presence of IL-12. The priming was performed using autologous dendritic cells generated from blood monocytes of the donors. In the second step, the activity of primed CD4-positive T-cells specific for the given peptide were tested by measurement of IFNγ production by intracellular IFNγ staining using a fluorescently labelled antibody. The analysis was done by flow cytometry (FACS).
Human DCs were prepared out of PBMCs from freshly drawn blood from healthy donors. PBMCs were isolated using a Ficoll density gradient (Lymphocyte Separation Medium, PAA Laboratories GmbH, Pasching, Austria). The obtained cells were washed, resuspended in X-Vivo 15 medium supplemented with 50 U/ml penicillin, 50 μg/ml streptomycin and 2 mM L-Glutamine (BioWhittaker, Verviers, Belgium) and plated at a density of 7×10^6 cells/ml. […]
Cryopreserved PBMCs were thawed, washed two times in X-Vivo 15 medium, resuspended at 10^7 cells/ml in T-cell medium and cultured overnight to reduce unspecific IFNγ production (Provenzano 2002). […] Cells were analyzed using a Cytofix/Cytoperm Plus kit (Becton Dickinson) and CD4-FITC− (Immunotools), IFNγ-PE- and CD8-PerCP clone SKI-antibodies (Becton Dickinson). After staining, cells were analyzed on a three-color FACSCalibur (Becton Dickinson).
To generate antigen-specific CD4-positive T-cells and to test the peptide on promiscuous binding, PBMCs of 4 healthy donors with different HLA-DR alleles (FIG. 7) were stimulated using peptide-pulsed autologous DCs. As a read-out system for the generation of antigen-specific CD4-positive T-cells IFNγ production was assessed by flow cytometry. T-cells were analyzed after the third and the fourth stimulation by intracellular IFNγ staining plus CD4-FITC and CD8-PerCP staining to determine the percentage of IFNγ-producing cells in specific T-cell subpopulations. […]

[6] = University of Tübingen trial, cited from earlier work
[7] = system: T-cells; details: peptide not vaccinated; not present prior to vaccination; 2 RCC patients; cited from earlier work
[8] = system: HLA-A*02 positive cell lines HCT 116, A498, MZ 1257, MCF-7, MeI 1479 and U266 that express c-Met; details: HLA-A2+/c-Met+ cell lines; SK-OV-3, Croft, K 562 not recognized; cited from earlier work
[9] = system: peptide loaded T2 cells and autologous DC; details: cited from earlier work
[10] = system: U 266 and A 498; details: inhibitor to target ratio 20:1; cited from earlier work
[11] = molecular target: T1, biotinylated recombinant HLA-A*0201 molecules lacking the transmembrane domain (human, biotinylated at the carboxy terminus of the heavy chain); assay: tetrameric recombinant HLA-A*0201 multimer loaded with the peptide, flow cytometry reagent
T1 construct: tetramerised on streptavidin-PE or streptavidin-APC at a 4:1 molar ratio, or coupled to streptavidin beads; also called HLA-A*0201 tetramer; HLA tetramers

[12] = molecular target: T1, biotinylated recombinant HLA-A*0201 …; assay: recombinant HLA-A*0201 refolded with the peptide, used on beads and as tetramer

Molecule: ALADGVQKV-OH [IMA-APO-001]
Solubility (Clear and colourless solution 1 mg/ml) [1]: water

Molecule: IFNα
response rate, initially reported [3]: 25-30%
true response rate suggested by additional trials [3]: about 10%

Molecule: LLGATCMFV-OH [IMA-CCN-001]
In vitro immunogenicity (assay by which shown) [4]: Killer assay (allogeneic T cells)
Solubility (Clear and colourless solution 1 mg/ml) [1]: 50% acetic acid

Molecule: SQDDIKGIQKLYGKRS-OH [IMA-MMP-001]
healthy donors in whom CD4-positive T-cell responses were elicited ([5]; 4 healthy donors with different HLA-DR alleles, positive if more than two fold over negative control): three out of four
CD4-positive T-cell reactivity (intracellular IFN gamma) ([5]; Donor 1, 2 and 3, after the third and the fourth stimulation): showed CD4-positive T-cells reactive
CD4-positive T-cell reactivity (intracellular IFN gamma) ([5]; Donor 4): always negative
In vitro immunogenicity (assay by which shown) [2]: Cytokine staining

Molecule: STAPPVHNV-OH [IMA-MUC-001]
In vitro immunogenicity (assay by which shown) [4]: Killer assay, cytokine release
Solubility (Clear and colourless solution 1 mg/ml) [1]: 10% acetic acid
autoimmune effects ([6]; administered with autologous dendritic cells): no autoimmune effects
tolerability ([6]; loaded on dendritic cells): very well tolerated

Molecule: SVASTITGV-OH [IMA-ADF-001]
In vitro immunogenicity (assay by which shown) [4]: Killer assay
Solubility (Clear and colourless solution 1 mg/ml) [1]: 10% acetic acid
specific T-cells after vaccination with non-related MUC peptides (epitope spreading) [7]: detected

Molecule: SVFAGVVGV-OH [IMA-GUC-001]
Solubility (Clear and colourless solution 1 mg/ml) [1]: 90% acetic acid

Molecule: VMAGDIYSV-OH [IMA-ADF-002]
Solubility (Clear and colourless solution 1 mg/ml) [1]: 10% acetic acid
In vitro immunogenicity (assay by which shown) [2]: Tetramer detection

Molecule: YVDPVITSI-OH [IMA-MET-001]
In vitro immunogenicity (assay by which shown) [4]: Killer assay, cytokine staining, tetramer
lysis of tumour cells endogenously expressing c-Met by induced CTL [8]: able to efficiently lyse malignant cells expressing both HLA-A2 and c-Met
cytotoxicity of induced CTL against peptide-loaded targets [9]: antigen-specific killing
effect of cold T2-cells pulsed with cognate peptide on lysis of tumour cells [10]: reduced the lysis of tumour cells

More lines, main results first:

Solubility (Clear and colourless solution 1 mg/ml) [1]: 20% acetic acid
Molecule: ALFDGDPHL-OH [IMA-K67-001]
In vitro immunogenicity (assay by which shown) [2]: Tetramer detection

Solubility (Clear and colourless solution 1 mg/ml) [1]: water
Molecule: LAALPHSCL-OH [IMA-RGS-001]
In vitro immunogenicity (assay by which shown) [2]: Tetramer detection

binding result [11]: binds
Molecule: ALFDGDPHL (HLA class I TUMAP) [IMA-K67-001 (peptide from KIAA0367)]

binding result [12]: binds
B1: IMA-MET-001 (peptide from c-met proto-oncogene) (peptide)
peptide: YVDPVITSI
notes: HLA class I TUMAP; also called c-Met peptide

binding result [11]: binds
B2: IMA-CCN-001 (peptide from Cyclin D1) (peptide)
peptide: LLGATCMFV
notes: HLA class I TUMAP; not identified by elution from tumour tissue; also called rCCN-001; CNN-001
